Key:
[1] = test system: Balb/C mice; test: CLP sepsis, survival and serum cytokines at 40 h (protocol B); assay type: in vivo; details: one dose 5 mg/kg i.p. at 24 h
Experimental: In vivo studies were performed in accordance with National Institutes of Health guidelines and with the approval of the North Shore-Long Island Jewish Health System’s Institutional Animal Care and Use Committee (IACUC). In mice, polymicrobial sepsis was induced by surgical ligation and perforation of the cecum, a widely used technique known as CLP. Briefly, male BALB/c mice (7–8 weeks old, 20–25 g) were anesthetized with a mixture of ketamine (100 mg/kg) and xylazine (8 mg/kg) intramuscularly, and a 15 mm midline incision was made to expose the cecum. After ligation of the cecum with a 6.0 silk suture below the junction of the ileo–cecal valve, the ligated cecal stump was perforated once with a 22-gauge needle. The cecum was then gently squeezed to extrude a small amount of feces through the perforation site. The cecum was restored to its normal intra-abdominal position, and the laparotomy was closed with 6.0 silk sutures. Immediately after CLP surgery, all animals were resuscitated with normal saline solution (subcutaneously 20 ml/kg body weight), and given a single dose of antibiotics (primaxin 0.5 mg/kg). In sham operated animals, the cecum was temporarily ligated, but the bowel was not punctured; these animals also received antibiotic treatment and resuscitation fluid. […] Survival was monitored twice daily for 2 weeks, at which time survivors were killed (CO2 asphyxia). […] Survival was monitored twice daily after surgery. […]
The levels of HMGB1 in the culture medium or murine serum were measured by western immunoblotting as previously described.[30] […] The relative band intensity was quantified by using the NIH image 1.59 software. The levels of HMGB1 (expressed as % maximum effect) were calculated with reference to standard curves generated with purified rHMGB1 and expressed as mean ± SEM of four experiments.
Concentrations of TNF and IL-6 were each determined using a commercially available enzyme-linked immunosorbent assay (ELISA) kit (R&D System Inc.) as previously described.[34] The levels of TNF or IL-6 were calculated with reference to standard curves. […]

[2] = test system: Balb/C mice; test: Cecal ligation and puncture (CLP) polymicrobial sepsis, survival (protocol A); assay type: in vivo
Experimental: In vivo studies were performed in accordance with National Institutes of Health guidelines and with the approval of the North Shore-Long Island Jewish Health System’s Institutional Animal Care and Use Committee (IACUC). In mice, polymicrobial sepsis was induced by surgical ligation and perforation of the cecum, a widely used technique known as CLP. Briefly, male BALB/c mice (7–8 weeks old, 20–25 g) were anesthetized with a mixture of ketamine (100 mg/kg) and xylazine (8 mg/kg) intramuscularly, and a 15 mm midline incision was made to expose the cecum. After ligation of the cecum with a 6.0 silk suture below the junction of the ileo–cecal valve, the ligated cecal stump was perforated once with a 22-gauge needle. […] Survival was monitored twice daily for 2 weeks, at which time survivors were killed (CO2 asphyxia). […] Survival was monitored twice daily after surgery. […]
Kaplan–Meier analysis was used to determine statistical significance of the differences in survival of mice. p ≦ 0.05 was considered significant. Values in the figures were expressed as mean(±)S.E.M. of two or three independent experiments, where each experimental point was derived from duplicates or triplicates. […]
Fig. 6 MECO-1 rescues mice from lethal sepsis. a Endotoxin. […] Survival was monitored daily for 2 weeks. […] Animals were monitored for survival for 14 days. […]

## alpha-melanocyte-stimulating hormone [alpha-MSH]
[1]; ELISA, p < 0.05 vs CLP alone
  serum TNF and IL-6 in survivors at 40 h after CLP: significantly muted responses
[1]; n = 10, saline four out of nine
  animals surviving to 40 h after CLP: Six of ten
[1]; western blot, saline three of four
  animals with elevated serum HMGB1 at 40 h after CLP: none
[2]; 5 mg/kg (high dose) i.p. twice daily, six doses starting 24 h post-surgery, n = 10, saline 15%
  survival at day 14 after CLP: around 50%
[2]; three experiments pooled, untreated 23% (9 of 39), alpha-MSH 15 of 22, MECO-1 42 of 64
  overall survival after CLP polymicrobial sepsis: 68%

Reference: paper PMC5684143, “New melanocortin-like peptide of E. coli can suppress inflammation via the mammalian melanocortin-1 receptor (MC1R): possible endocrine-like function for microbes of the gut” (NPJ Biofilms and Microbiomes, 2017)
